Source: the NIST ThermoML archive (doi:10.1021/je300632p)

Experiment: xn = mol fraction of the nth substance listed
Conditions: 101 kPa, Liquid; for viscosity: Falling or rolling sphere viscometry; for mass density: Vibrating tube method

CCCCCO [pentan-1-ol] + CCO
Conditions	mass density, 313.15 K [kg/m3]	mass density, 318.15 K [kg/m3]	mass density, 323.15 K [kg/m3]	mass density, 328.15 K [kg/m3]	viscosity, 313.15 K [mPa·s]	viscosity, 318.15 K [mPa·s]	viscosity, 323.15 K [mPa·s]	viscosity, 328.15 K [mPa·s]
x2 = 0	799.42	795.64	791.84	787.98	2.283	2.014	1.784	1.586
x2 = 0.101	797.95	794.14	790.29	786.4	2.105	1.865	1.658	1.48
x2 = 0.2	796.2	792.36	788.48	784.55	1.943	1.728	1.543	1.382
x2 = 0.3	794.26	790.38	786.46	782.49	1.779	1.59	1.426	1.283
x2 = 0.401	792.24	788.31	784.34	780.32	1.623	1.455	1.31	1.182
x2 = 0.5	789.89	785.91	781.88	777.8	1.452	1.308	1.181	1.07
x2 = 0.6	787.27	783.23	779.14	775	1.317	1.192	1.08	0.982
x2 = 0.7	784.11	780	775.83	771.63	1.181	1.072	0.975	0.889
x2 = 0.801	780.91	776.71	772.46	768.16	1.042	0.949	0.866	0.792
x2 = 0.901	776.81	772.51	768.16	763.76	0.921	0.841	0.771	0.707
